In one test the test system is THP1-Dual monocytes. Nature of the test: THP1-Dual differentiation assay, immX3 peptide plus helper or inhibitor molecule. It is filed as cell-based, human. To be noted: immX3 peptide (330 nM) in all samples plus helper at the concentration given; immX3 with buffer = 100.0. As to the method:
Mammalian cell differentiation assays using THP1-Dual monocytes reporter cell line (Invivogen Inc, San Diego, CA) seeded at 2×10e5 cells per well in 96-well plates and cultured at 37 degrees C. in RPMI-1640 growth medium plus 10% fetal bovine serum and 1% penicillin/streptomycin, then treated for 24 hours with either 100 ng/ml Phorbol 12-myristate 13-acetate (PMA protocol; Cayman Chemical Company, Ann Arbor, MI) or a mixture of IL-4 (100 ng/ml), GM-CSF (100 ng/ml), TNF-alpha (20 ng/ml) and ionomycin (200 ng/ml) (Cytokine protocol; Peprotech, Rocky Hill, NJ). Peptide (330 nM) was then added, and incubation continued for an additional 24 hours. Culture supernatants were then assayed for CCL22. Plates with adherent cells were washed with PBS and assayed for immunoreactivity of surface markers such as CD169, Clec9a, Clec12a or MHCII using fuorescent tag- or biotin-labeled anti-human antibodies purchased from Miltenyi Biotec (Auburn, CA) and a relevant secondary detection reagent, or by fluorescence counts.
The THP1-Dual cell differentiation assay was carried out as described above in Example 2, using immX3 peptide (330 nM) in all samples plus the indicated helper or inhibitor molecule. AU=arbitrary ELISA units. **p<0.01.

A short description of test [1]: Experiment 4D binding to FITC-labelled heparin. As to conditions: biotinylated peptide 1 ug/well; 1 ug FITC-labelled heparin, 90 minutes. Here is the method: (§1) Streptavidin-coated 96-well plates (G-Biosciences, St. Louis, MO) were pre-treated with biotinylated peptides [see Example 1 for key] at 1 ug/well, at room temperature for 60 minutes. The plate was washed with PBS buffer and then 1 ug FITC-labelled heparin or hyaluronic acid in 100 uL PBS buffer was added per well (all tests in quadruplicate). Incubation proceeded for 90 minutes at room temperature, followed by two PBS washes. The plate was read in a standard laboratory fluorometer (488/525 nm exitation/[…]) and the counts normalized for immX3 peptide binding=100. Values statistically above background are shown in bold font. **p<0.05 versus immX3AVD.

Test [2] deals with HFF-1 human fibroblast cell line. Nature of the test: Collagen-1 ELISA in HFF-1 dermal fibroblasts. Format: cell-based. To be noted: peptide 2 uM, 72 hour incubation. Here is the method: Immodulin peptides have potential untility in the field of cosmetics. HFF-1 human fibroblast cell line was obtained from the American Type Culture Collection (ATCC). Cells were grown in a T-75 flask in DMEM Medium containing 10% fetal bovine serum and penicillin-streptomycin at 37° C. in a humidified, 5% CO2 incubator. Cells (100 µl, 2,000 cells/well) were plated in a 96-well plate and incubated overnight at 37° C. in a humidified, 5% CO2 incubator. Next day, 10 µl/well of compounds were added (quadruplicate wells). After 72 hour incubation with the compound, supernatants were collected for Collagen-1 ELISA assay and cell viability was measured in a luminometer after the addition of 100 IL/well CellTiterGlo reagent (Promega Inc, Madison, WI) as recommended by the manufacturer. Collagen stimulating activity of immodulin peptides in HFF-1 dermal fibroblasts: Peptides were added to cells at 2 uM. COL1 immunoreactivity was measured in the supernatants of cultured cells by ELISA using a rabbit monoclonal anti-COL1 primary antibody (Abcam, Cambridge, MA). Control (buffer) value of immunoreactivity was set to 100.

Test [3] in a line: Ferric iron-binding assay of biotinylated immodulin peptides. To be noted: N-terminally biotinylated peptide, 400 ng per well, 60 min room temperature; immX3AVD = 100. From the text: N-terminally biotinylated versions of the peptides listed below were used in ferric iron-binding assays involving either an Alexa488-labeled streptavidin protocol (Binding Assay 1) or FITC-NTA assay (Binding Assay 2). Fluorescence was standardized to binding with immX3AVD control peptide (100) and the average of multiple experiments using both protocols is shown. P values are shown relative to the control immX3AVD peptide (**<0.05). D-amino acid residues are underlined in the sequences and the extension tripeptide of immX peptides is shown in bold font. Binding Assay 1 was done as follows: NTA coated 96-well plates (G-Biosciences, St. Louis, MO) were charged with ferric chloride and contacted with equimolar biotinylated peptide: streptavidin-A488 complex (400 ng peptide per well) for 60 min at room temperature, washed with phosphate-buffered saline (PBS) and read at 525 nm in a fluorescence counter. Binding Assay 2 was done as follows: Streptavidin coated 96-well plates (G-Biosciences, St. Louis, MO) were contacted with 400 ng peptide per well in PBS buffer for 60 minutes at room temperature, washed in PBS, then contacted with FITC-NTA (TRC, Toronto, Canada) complexed with equimolar ferric chloride (10× molar equivalent per well) for 60 min at room temperature, washed with PBS and read at 525 nm in a fluorescence counter.

Test [4] concerns the target T1, AA111-228 DNA-binding domain of RXR-alpha (RXRa-DBD) (Homo sapiens, UniProt P19793).
T1 construct: purchased Abcam, Cambridge, MA
T1 sequence (P19793 111-228): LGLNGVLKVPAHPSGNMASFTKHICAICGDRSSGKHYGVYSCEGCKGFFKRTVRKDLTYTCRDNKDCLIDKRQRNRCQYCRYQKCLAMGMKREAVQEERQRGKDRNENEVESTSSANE
Nature of the test: Experiment 4A binding to RXRa-DBD. As to conditions: 1 ug/well RXRa-DBD; 800 ng/well SA488-labelled peptide, 60 min; background subtracted. As to the method:
Experiment 4A. Binding of immodulin peptides to AA111-228 DNA-binding domain of RXR-alpha (RXRa-DBD). 1 ug/well recombinant RXRa-DBD (Abcam, Cambridge, MA) was adsorbed to wells of a 96-well plate for 60 minutes at room temperature, then blocked with 200 uL 1% bovine serum albumin (BSA) in PBS buffer overnight. Plate was washed and 800 ng/well Streptavidin-Alexa 488 conjugate (SA488)-labelled immX peptide was added. The plate was incubated for 60 min at room temperature, washed and counted in a standard fluorometer (excitation/emission 485/525 nm). Background (buffer alone) was subtracted.

Test [5] in a line: Experiment 4D binding to FITC-labelled hyaluronic acid. As to conditions: biotinylated peptide 1 ug/well; 1 ug FITC-labelled hyaluronic acid, 90 minutes. Here is the method:
as §1

Marks after values point to notes of the source that are not given here. Square brackets hold non-standard residues; d marks the D form. Ends that are not written are not given here. Peptide text beside a SMILES is read from it.

Consider “GM-CSF: granulocyte-macrophage colony-stimulating factor; growth factor class”, for which the “CD169 (AU)” value in the test with THP1-Dual monocytes was 147.0 ± 15.3** AU.

Take Leptin: Growth factor class: in the test on THP1-Dual monocytes, the “CD169 (AU)” value is reported as 103.3 ± 11.6 AU.

Consider Transferrin: Fe-binding protein, for which the “CD169 (AU)” value in the test on THP1-Dual monocytes was 126.8 ± 9.3** AU.

In the case of `CSCC[C@H](NC(=O)[C@H](CCCCN)NC(=O)[C@H](CS)NC(=O)[C@H](CCC(N)=O)NC(=O)[C@H](CCCCN)NC(=O)[C@H](CC(C)C)NC(=O)[C@H](CC(N)=O)NC(=O)[C@H](Cc1ccc(O)cc1)NC(=O)[C@H](CC(C)C)NC(=O)CNC(=O)[C@H](Cc1c[nH]cn1)NC(=O)[C@@H](N)CCCCN)C(=O)N[C@@H](CO)C(=O)N[C@@H](CC(C)C)C(=O)N[C@@H](CC(N)=O)C(=O)NCC(=O)N[C@@H](CCC(N)=O)C(=O)N[C@@H](CCCNC(=N)N)C(=O)NCC(=O)N[C@@H](CCC(=O)O)C(=O)N[C@@H](CS)C(=O)N[C@@H](Cc1c[nH]c2ccccc12)C(=O)O` [imm2], the “Heparin binding, counts normalized for immX3 peptide binding=100” value in test [1] worked out at 27.4 ± 22.9. Also, the “COL1 immunoreactivity in supernatants, control (buffer) set to 100” value in test [2] is 109. For the same molecule, in test [3], the “Ferric iron binding, fluorescence standardized to immX3AVD control peptide (100), Avg ± SD” value (shortened to “Ferric iron binding … Avg ± SD”) was 1.6 ± 0.8**. The “Fluorescence, binding to RXRa-DBD” value in test [4] is given as 2±38. Also, the “Hyaluronate binding, counts normalized for immX3 peptide binding=100” value in test [5] was found to be 3.1 ± 9.8.

With Hyaluronic acid [reference compound], the “CD169 (AU)” value with THP1-Dual monocytes turned out to be 110.5 ± 10.2 AU.

In the case of “KKGFYKKKQCRPSKGRKRGFCW[dA][dV][dD] (cysteine pairing not given here) [immX3dAdVdD]”, the “Heparin binding, counts normalized for immX3 peptide binding=100” value in test [1] is reported as 55.5 ± 5.7**. The “Ferric iron binding … Avg ± SD” value in test [3] is given as 102.4 ± 9.1. The “Hyaluronate binding, counts normalized for immX3 peptide binding=100” value in test [5] worked out at 104.2 ± 14.7.

In the case of `CSCC[C@H](NC(=O)[C@H](CO)NC(=O)[C@@H](NC(=O)[C@H](CCC(=O)O)NC(=O)[C@H](CS)NC(=O)[C@H](CCC(N)=O)NC(=O)[C@H](CCCNC(=N)N)NC(=O)[C@H](CO)NC(=O)[C@H](Cc1c[nH]cn1)NC(=O)[C@H](Cc1ccc(O)cc1)NC(=O)[C@H](Cc1ccccc1)NC(=O)CNC(=O)[C@H](CC(N)=O)NC(=O)[C@@H](N)CCCCN)[C@@H](C)O)C(=O)N[C@@H](CC(=O)O)C(=O)NCC(=O)N[C@@H](CCC(=O)O)C(=O)N[C@@H](C)C(=O)NCC(=O)N[C@@H](CC(C)C)C(=O)N[C@@H](CS)C(=O)N[C@@H](Cc1c[nH]c2ccccc12)C(=O)O` [imm1] (H-KNGFYHSRQCETSMDGEAGLCW-OH; N-terminus and C-terminus assumed), the “COL1 immunoreactivity in supernatants, control (buffer) set to 100” value in test [2] was found to be 98. For the same molecule, the “Ferric iron binding … Avg ± SD” value in test [3] is on record as 2.5 ± 1.6**. In test [4], the “Fluorescence, binding to RXRa-DBD” value is given as 670±85.

B1: CSF1: colony stimulating factor 1; growth factor class (protein, UniProt P09603 33-554, looked up)
Macrophage colony-stimulating …: EEVSEYCSHMIGSGHLQSLQRLIDSQMETSCQITFEFVDQEQLKDPVCYLKKAFLLVQDIMEDTMRFRDNTPNAIAIVQLQELSLRLKSCFTKDYEEHDKACVRTFYETPLQLLEKVKNVFNETKNLLDKDWNIFSKNCNNSFAECSSQDVVTKPDCNCLYPKAIPSSDPASVSPHQPLAPSMAPVAGLTWEDSEGTEGSSLLPGEQPLHTVDPGSAKQRPPRSTCQSFEPPETPVVKDSTIGGSPQPRPSVGAFNPGMEDILDSAMGTNWVPEEASGEASEIPVPQGTELSPSRPGGGSMQTEPARPSNFLSASSPLPASAKGQQPADVTGTALPRVGPVRPTGQDWNHTPQKTDHPSALLRDPPEPGSPRISSLRPQGLSNPSTLSAQPQLSRSHSSGSVLPLGELEGRRSTRDRRSPAEPEGGPASEGAARPLPRFNSVPLTDTGHERQSEGSFSPQLQESVFHLLVPSVILVLLAVGGLLFYRWRRRSHQEPQRADSPLEQPEGSPLTQDDRQVELPV
Consider B1, for which, in the test on THP1-Dual monocytes, the “CD169 (AU)” value was 108.0 ± 32.3 AU.
